According to patent US6469146B1, “Radiopharmaceutical products suitable for the selective labeling of lymphocytes, and their preparation” (Cis Bio International, priority 2000, dated 2002):

tested on: human blood; test: Labeling of blood cells: yield of cell labeling in whole blood; assay type: cell-based; details: 2 mCi (74 MBq) in 3 mL fresh human blood, 10 minutes, after washings
Procedure: (§1) The radiopharmaceuticals of table I (2 mCi; 74 MBq) are incubated in 3 mL of a fresh sample of human blood for 10 minutes under slow shaking. The blood composition depends upon each sample taken from healthy volunteers (average composition: 1.6±0.3.10^10 Red Globules (RG) and 2.2±0.3.10^7 White Globules (WG) with 1.2±0.3.10^7 Polymorphs (57±9%) and 0.7±0.3.10^7 Lymphocytes (35±4%)]. Non-bound radioactivity is removed by successive washings (2×10 mL of RPMI culture medium 1640) of 10 minutes at 600 g. The yield of cell labeling is determined in a CAPINTEC CRC 120 activimeter. Cell viability is controlled by the Trypan blue exclusion test.
(§2) The results obtained, namely the labeling yield (Yield) and the percentages of activity in the separated fractions are given in tables 3 to 5.

Row | SMILES | Yield (±3%) of cell labeling [%]
1 | Cc1ccc(C(=S)S[S][99Tc]([S]SC(=S)c2ccc(C)cc2)[S]C(=S)c2ccc(C)cc2)cc1 [Example 5, [^99mTc(4-MePhCS3)2(4-MePhCS2)]] | 98
2 | Cc1ccc(C(=S)S[S][99Tc]([S]SC(=S)c2ccc(C)cc2)[S]C(=S)c2ccc(C)cc2)cc1 [Example 6, [^99mTc(4-MePhCS3)2(4-MePhCS2)]] | 95
3 | CCc1ccc(C(=S)S[S][99Tc]([S]SC(=S)c2ccc(CC)cc2)[S]C(=S)c2ccc(CC)cc2)cc1 [Example 7, [^99mTc(4-EtPhCS3)2(4-EtPhCS2)]] | 93
4 | CCc1ccc(C(=S)S[S][99Tc]([S]SC(=S)c2ccc(CC)cc2)[S]C(=S)c2ccc(CC)cc2)cc1 [Example 8, [^99mTc(4-EtPhCS3)2(4-EtPhCS2)]] | 99
5 | CCc1ccccc1C(=S)S[S][99Tc]([S]SC(=S)c1ccccc1CC)[S]C(=S)c1ccccc1CC [Example 9, [^99mTc(2-EtPhCS3)2(2-EtPhCS2)]] | 72
6 | CCc1ccccc1C(=S)S[S][99Tc]([S]SC(=S)c1ccccc1CC)[S]C(=S)c1ccccc1CC [Example 10, [^99mTc(2-EtPhCS3)2(2-EtPhCS2)]] | 92
7 | CCCCc1ccc(C(=S)S[S][99Tc]([S]SC(=S)c2ccc(CCCC)cc2)[S]C(=S)c2ccc(CCCC)cc2)cc1 [Example 11, [^99mTc(4-nBuPhCS3)2(4-nBuPhCS2)]] | 97
8 | CCCCc1ccc(C(=S)S[S][99Tc]([S]SC(=S)c2ccc(CCCC)cc2)[S]C(=S)c2ccc(CCCC)cc2)cc1 [Example 12, [^99mTc(4-nBuPhCS3)2(4-nBuPhCS2)]] | 100
9 | CCOc1ccc(C(=S)S[S][99Tc]([S]SC(=S)c2ccc(OCC)cc2)[S]C(=S)c2ccc(OCC)cc2)cc1 [Example 13, [^99mTc(4-EtOPhCS3)2(4-EtOPhCS2)]] | 99

tested on: whole blood; test: Cell separation on whole blood (Polymorphprep gradient), activity in separated fractions; assay type: cell-based, human; design: tested at 2 mCi (74 MBq) in 3 mL blood; details: fraction: Polymorphprep gradient
Procedure: as §1, §2
In a first experiment, a separation of the blood constituents is made on a double density Polymorphprep® gradient.
Whole blood from healthy volunteers is labeled with 2 mCi of [^99mTc(ArCS3)2(ArCS2)] following the method described above. The blood constituents are then separated by the Polymorphprep® double density gradient into two separate fractions: lymphocytes and polymorphs/erythrocytes. The whole blood, diluted in 2-3 mL RPMI, is initially delicately placed on the Polymorphprep® gradient and then centrifuged (300 g, 20 min, 37° C.). […] Counting is made on each fraction using a MAXM Y07 00 367 counter in order to confirm cell constitution.

Row | SMILES | Cell separation on whole blood (activity %): Polymorphprep [%]
10 | Cc1ccc(C(=S)S[S][99Tc]([S]SC(=S)c2ccc(C)cc2)[S]C(=S)c2ccc(C)cc2)cc1 [Example 5, [^99mTc(4-MePhCS3)2(4-MePhCS2)]] | 3
11 | Cc1ccc(C(=S)S[S][99Tc]([S]SC(=S)c2ccc(C)cc2)[S]C(=S)c2ccc(C)cc2)cc1 [Example 6, [^99mTc(4-MePhCS3)2(4-MePhCS2)]] | 2
12 | CCc1ccc(C(=S)S[S][99Tc]([S]SC(=S)c2ccc(CC)cc2)[S]C(=S)c2ccc(CC)cc2)cc1 [Example 7, [^99mTc(4-EtPhCS3)2(4-EtPhCS2)]] | 3
13 | CCc1ccccc1C(=S)S[S][99Tc]([S]SC(=S)c1ccccc1CC)[S]C(=S)c1ccccc1CC [Example 9, [^99mTc(2-EtPhCS3)2(2-EtPhCS2)]] | 2
14 | CCc1ccccc1C(=S)S[S][99Tc]([S]SC(=S)c1ccccc1CC)[S]C(=S)c1ccccc1CC [Example 10, [^99mTc(2-EtPhCS3)2(2-EtPhCS2)]] | 2
15 | CCCCc1ccc(C(=S)S[S][99Tc]([S]SC(=S)c2ccc(CCCC)cc2)[S]C(=S)c2ccc(CCCC)cc2)cc1 [Example 11, [^99mTc(4-nBuPhCS3)2(4-nBuPhCS2)]] | 1
16 | CCCCc1ccc(C(=S)S[S][99Tc]([S]SC(=S)c2ccc(CCCC)cc2)[S]C(=S)c2ccc(CCCC)cc2)cc1 [Example 12, [^99mTc(4-nBuPhCS3)2(4-nBuPhCS2)]] | 4
17 | CCOc1ccc(C(=S)S[S][99Tc]([S]SC(=S)c2ccc(OCC)cc2)[S]C(=S)c2ccc(OCC)cc2)cc1 [Example 13, [^99mTc(4-EtOPhCS3)2(4-EtOPhCS2)]] | 1

same assay, conditions: fraction: erythrocytes

Row | SMILES | Cell separation on whole blood (activity %): Erythrocytes [%]
18 | Cc1ccc(C(=S)S[S][99Tc]([S]SC(=S)c2ccc(C)cc2)[S]C(=S)c2ccc(C)cc2)cc1 [Example 5, [^99mTc(4-MePhCS3)2(4-MePhCS2)]] | 17
19 | Cc1ccc(C(=S)S[S][99Tc]([S]SC(=S)c2ccc(C)cc2)[S]C(=S)c2ccc(C)cc2)cc1 [Example 6, [^99mTc(4-MePhCS3)2(4-MePhCS2)]] | 20
20 | CCc1ccc(C(=S)S[S][99Tc]([S]SC(=S)c2ccc(CC)cc2)[S]C(=S)c2ccc(CC)cc2)cc1 [Example 7, [^99mTc(4-EtPhCS3)2(4-EtPhCS2)]] | 12
21 | CCc1ccc(C(=S)S[S][99Tc]([S]SC(=S)c2ccc(CC)cc2)[S]C(=S)c2ccc(CC)cc2)cc1 [Example 8, [^99mTc(4-EtPhCS3)2(4-EtPhCS2)]] | 14
22 | CCc1ccccc1C(=S)S[S][99Tc]([S]SC(=S)c1ccccc1CC)[S]C(=S)c1ccccc1CC [Example 9, [^99mTc(2-EtPhCS3)2(2-EtPhCS2)]] | 24
23 | CCc1ccccc1C(=S)S[S][99Tc]([S]SC(=S)c1ccccc1CC)[S]C(=S)c1ccccc1CC [Example 10, [^99mTc(2-EtPhCS3)2(2-EtPhCS2)]] | 22
24 | CCCCc1ccc(C(=S)S[S][99Tc]([S]SC(=S)c2ccc(CCCC)cc2)[S]C(=S)c2ccc(CCCC)cc2)cc1 [Example 11, [^99mTc(4-nBuPhCS3)2(4-nBuPhCS2)]] | 53
25 | CCCCc1ccc(C(=S)S[S][99Tc]([S]SC(=S)c2ccc(CCCC)cc2)[S]C(=S)c2ccc(CCCC)cc2)cc1 [Example 12, [^99mTc(4-nBuPhCS3)2(4-nBuPhCS2)]] | 29
26 | CCOc1ccc(C(=S)S[S][99Tc]([S]SC(=S)c2ccc(OCC)cc2)[S]C(=S)c2ccc(OCC)cc2)cc1 [Example 13, [^99mTc(4-EtOPhCS3)2(4-EtOPhCS2)]] | 29

same assay, conditions: fraction: leukocytes

Row | SMILES | Cell separation on whole blood (activity %): Leukocytes [%]
27 | Cc1ccc(C(=S)S[S][99Tc]([S]SC(=S)c2ccc(C)cc2)[S]C(=S)c2ccc(C)cc2)cc1 [Example 5, [^99mTc(4-MePhCS3)2(4-MePhCS2)]] | 80
28 | Cc1ccc(C(=S)S[S][99Tc]([S]SC(=S)c2ccc(C)cc2)[S]C(=S)c2ccc(C)cc2)cc1 [Example 6, [^99mTc(4-MePhCS3)2(4-MePhCS2)]] | 78
29 | CCc1ccc(C(=S)S[S][99Tc]([S]SC(=S)c2ccc(CC)cc2)[S]C(=S)c2ccc(CC)cc2)cc1 [Example 7, [^99mTc(4-EtPhCS3)2(4-EtPhCS2)]] | 83
30 | CCc1ccc(C(=S)S[S][99Tc]([S]SC(=S)c2ccc(CC)cc2)[S]C(=S)c2ccc(CC)cc2)cc1 [Example 8, [^99mTc(4-EtPhCS3)2(4-EtPhCS2)]] | 85
31 | CCc1ccccc1C(=S)S[S][99Tc]([S]SC(=S)c1ccccc1CC)[S]C(=S)c1ccccc1CC [Example 9, [^99mTc(2-EtPhCS3)2(2-EtPhCS2)]] | 72
32 | CCc1ccccc1C(=S)S[S][99Tc]([S]SC(=S)c1ccccc1CC)[S]C(=S)c1ccccc1CC [Example 10, [^99mTc(2-EtPhCS3)2(2-EtPhCS2)]] | 76
33 | CCCCc1ccc(C(=S)S[S][99Tc]([S]SC(=S)c2ccc(CCCC)cc2)[S]C(=S)c2ccc(CCCC)cc2)cc1 [Example 11, [^99mTc(4-nBuPhCS3)2(4-nBuPhCS2)]] | 46
34 | CCCCc1ccc(C(=S)S[S][99Tc]([S]SC(=S)c2ccc(CCCC)cc2)[S]C(=S)c2ccc(CCCC)cc2)cc1 [Example 12, [^99mTc(4-nBuPhCS3)2(4-nBuPhCS2)]] | 66
35 | CCOc1ccc(C(=S)S[S][99Tc]([S]SC(=S)c2ccc(OCC)cc2)[S]C(=S)c2ccc(OCC)cc2)cc1 [Example 13, [^99mTc(4-EtOPhCS3)2(4-EtOPhCS2)]] | 70

same assay, conditions: fraction: medium

Row | SMILES | Cell separation on whole blood (activity %): Medium [%]
36 | Cc1ccc(C(=S)S[S][99Tc]([S]SC(=S)c2ccc(C)cc2)[S]C(=S)c2ccc(C)cc2)cc1 [Example 5, [^99mTc(4-MePhCS3)2(4-MePhCS2)]] | 0
37 | CCc1ccc(C(=S)S[S][99Tc]([S]SC(=S)c2ccc(CC)cc2)[S]C(=S)c2ccc(CC)cc2)cc1 [Example 7, [^99mTc(4-EtPhCS3)2(4-EtPhCS2)]] | 2
38 | CCc1ccc(C(=S)S[S][99Tc]([S]SC(=S)c2ccc(CC)cc2)[S]C(=S)c2ccc(CC)cc2)cc1 [Example 8, [^99mTc(4-EtPhCS3)2(4-EtPhCS2)]] | 1
39 | CCc1ccccc1C(=S)S[S][99Tc]([S]SC(=S)c1ccccc1CC)[S]C(=S)c1ccccc1CC [Example 9, [^99mTc(2-EtPhCS3)2(2-EtPhCS2)]] | 2
40 | CCc1ccccc1C(=S)S[S][99Tc]([S]SC(=S)c1ccccc1CC)[S]C(=S)c1ccccc1CC [Example 10, [^99mTc(2-EtPhCS3)2(2-EtPhCS2)]] | 2
41 | CCCCc1ccc(C(=S)S[S][99Tc]([S]SC(=S)c2ccc(CCCC)cc2)[S]C(=S)c2ccc(CCCC)cc2)cc1 [Example 12, [^99mTc(4-nBuPhCS3)2(4-nBuPhCS2)]] | 1
